Assay results reported in patent publication US9919000B2, “Altering cancer cellular functions through proton mopping” (priority 2013, dated 2018).

How the values were obtained:
[1] = Tolerability in the 4T1 tumor study (body weight, general behavior); type: in vivo; conditions: intravenous daily dosing for 5 consecutive days, tumor-bearing Balb/c mice
Method: (§1) Treatment: the tested compound was prepared right before dosing on day 8 after 4T1 inoculation. Each mouse received a predetermined dose of either the compound or saline intravenously daily for 5 consecutive days. The mice tumor volumes and mice body weights were monitored every other day along with other general behavior factors.
(§2) Endpoints: animal was euthanized if one of the following conditions was identified: • its neoplasm reached the predetermined 1000 cubic mms • the animal became moribund • body weight lost more than 20% of its original weight

mouse 4T1 breast tumor = assay: In vivo syngeneic mouse 4T1 breast tumor study; parameters: species or system Balb/c mice
Text: The Purpose: to assess the anti-tumor activity of the existing compound, C12H25NO8, PEGylated amine functionalized glycoside, 2-[2(2-Aminoethoxy)ethoxy]ethyl a-D-mannopyranoside, on a model of mouse 4T1 breast tumor in Balb/C mice.
Animal and Facility: healthy female Balb/c (5-6 weeks old), purchased from Harlan Laboratories, were allowed to acclimate for 3 days in a specific pathogen free animal facility. Animal housing, handling and procedures were followed according to the protocols and guidelines approved by the lab's Institutional Animal Care and Use Committee (IACUC).
In Vivo Syngeneic Tumor Study Design: Murine 4T1 breast tumor cells were kept in RPMI-1640 medium containing 10% FBS and 1% Pen/Strep. On the day of inoculation, the cells were harvested according to standard protocol (Beth Pulaski) and re-suspended in PBS at the cell concentration of 2.5×10^5 cells/ml. Each animal was injected with 0.1 ml of the cell solution into the right flank of Balb/c mice following the SOP. On the 8th day post-inoculation, all tumor volumes were measured and the animals were divided into two groups, control and treated.
Study Design: to deliver a predetermined dose of the compound intravenously for 5 days.
Study Objective: to observe clinically the reduction of the size of the tumors using calipers (our “biomarker”).[FIG. 2]
as §1, §2

With `NCCOCCOCCO[C@H]1OC(CO)[C@@H](O)[C@H](O)C1O` (stereo partly drawn) [compound 5, 1-(2-(2-(2-Aminoethoxy)ethoxy)ethoxy-D-mannopyranoside] the “toxic effects / tolerability” value [1] was “no toxic effects were observed”, the “maximal tumor growth inhibition index (TIC ratio)” value (mouse 4T1 breast tumor; by day 10, intravenously daily for 5 consecutive days from day 8 after 4T1 inoculation, tumor size by calipers) was “around 48%” and the “4T1 tumor growth in the treated group” value (mouse 4T1 breast tumor; during treatment (day 8 to day 12), control tumors doubled every 2-3 days) was “grew slowly”. The tumor reduction (mouse 4T1 breast tumor; syngeneic mouse breast cancer model, FIG. 1) was 48%.
